Measurements from patent US4324894A, “Aminoisoquinoline derivatives” (Egyt Gyogyszervegyeszeti Gyar, priority 1979, dated 1982).

Columns and labels:
Format in all cases: in vivo
[1] = tested on: mice; assay: Acute toxicity on mice, oral; conditions: mice weighing 18 to 22 g, orally
Method: (§1) The acute toxicity of the aminoisoquinoline derivatives of the formula (I) were determined on mice weighing 18 to 22 g. The compounds were administered orally. The LD50 values are summarized in Table I. Toxicity data for meprobamate [2-methyl-2-propylpropane-1,3-dioldicarbamate] and phenylbutazon [4-butyl-1,2-diphenylpyrazolidine-3,5-dione] used as reference substances in the pharmacological tests are also given in Table I.

[2] = Acute toxicity on mice, oral; conditions: mouse, in vivo, po, mice weighing 18 to 22 g, orally
Method: as §1

[3] = tested on: narcosis developed with hexobarbital; assay: Potentiation of the narcosis developed with hexobarbital; conditions: mice; for ED50: Mus musculus, po; for Therapeutic index: p.o., corresponds to LD50/ED50
Method: The narcosis potentiating effects of the novel compounds having the formula (I) were studied by the method of Kaergaard and al., Arch. Int. […] The compounds studied were administered orally to groups of mice consisting of 6 animals each. To the control group, 20 ml/kg of 0.9 percent sodium chloride solution was orally administered. Then, the animals were treated with an intravenous dosage of 40 mg/kg of hexobarbital/5-(1-cyclohexenyl)-1,5-dimethylbarbituric acid/. According to our evaluation method, a 150 percent prolongation of sleeping period in relation to the control group was regarded as a positive response.
The number of animals with positive responses was related to the total number of animals treated.

[4] = orally, hexobarbital 40 mg/kg intravenous, positive response = 150 percent prolongation of sleeping period in relation to control

| SMILES | LD50 p.o. [1] | LD50 [2] | ED50 [3, 4] | Therapeutic index [3] | ED50 p.o. [3, 4] |
| --- | --- | --- | --- | --- | --- |
| Nc1cc2ccccc2c(N2CCOCC2)n1 [Example 5, 1-morpholinyl-3-aminoisoquinoline ethanesulfonate] | 2000 mg/kg | – | – | – | – |
| Cc1c(N)nc(N2CCN(c3ccccn3)CC2)c2ccccc12 [Example 2, 1-/4'-(2"-pyridyl)-1'-piperazinyl/-3-amino-4-methylisoquinoline] | – | 2000 mg/kg | 74 mg/kg | 27 | – |
| Nc1cc2ccccc2c(N2CCOCC2)n1 [Example 4, 1-morpholinyl-3-aminoisoquinoline] | – | > 2000 mg/kg | – | – | – |
| Nc1cc2ccccc2c(N2CCN(c3ccccn3)CC2)n1 [Example 6, 1-/4'-(2"-pyridyl)-piperazin-1'-yl/-3-aminoisoquinoline] | – | 2000 mg/kg | 140 mg/kg | 14.3 | – |
| CCCC(C)(COC(N)=O)COC(N)=O [Meprobamate, 2-methyl-2-propylpropane-1,3-dioldicarbamate, reference compound] | – | – | 260 mg/kg | 4.2 | – |
| Cc1c(N)nc(N2CCN(c3ccccn3)CC2)c2ccccc12 [Example 3, 1-/4'-(2"-pyridyl)-1'-piperazinyl/-3-amino-4-methylisoquinoline bis/ethanesulfonate/] | 2000 mg/kg | – | – | 14.3 | 140 mg/kg |
| Cc1c(N)nc(N2CCOCC2)c2ccccc12 [Example 1, 1-morpholinyl-3-amino-4-methylisoquinoline] | – | 2000 mg/kg | 100 mg/kg | 20 | – |
